From patent US8247565B2, “Sirtuin modulating compounds” (Sirtris Pharmaceuticals, Inc., priority 2007, dated 2012)
Where a name gives a salt, the structure may show the parent alone. Each block holds one compound with its values, some of them ahead of it.

Columns and labels:
[1] = tested on: diet induced obesity model (DIO); experiment: Blood glucose in diet induced obesity (DIO) mouse model; format: in vivo, C57BL/6 male mice; settings: DIO mice; for blood glucose vs vehicle: from week 2 onwards (FIGS. 3-5); for week 4 fed glucose test vs vehicle: blood glucose remained lower than vehicle
Description: (§1) The purpose of this example was to compare the efficacy of Compound 1 in salt and free base formulations in two different mouse models of diabetes, a diet induced obesity model (DIO) and the Ob/ob mouse. Blood glucose was the main determinant through the experiment of efficacy.
For the diet induced obesity model, six week old C57BL/6 male mice (Charles River Labs) were fed a high fat diet (60% calories from fat; Research Diets) for approximately 6 weeks until their body weight reached approximately 40 g. Test compounds were administered daily via oral gavage at the indicated doses. The vehicle used was 2% HPMC and 0.2% DOSS. Individual mouse body weights were measured twice weekly. Every 2 weeks throughout the study, mice from each group were bled via the tail vein for determination of blood glucose. Statistical analysis was completed using the JMP program (Version 6). Data were analyzed by a one way ANOVA with comparison to control using a Dunnett's Test. A p value <0.05 indicated a significant difference between groups.
Compound 1 in the free base form was then tested in the DIO model.

Ob/ob mouse = experiment: Blood glucose in Ob/ob mouse model; format: in vivo; settings: ob/ob mice, free base 100 mg/kg
Description: as §1
Ob/ob mice are genetically manipulated knockout mice that lack leptin, an important satiety protein that neurologically signals the end of hunger. The leptin mutation is homozygous and a heterozygous strain is included as a control (Ob/+); this group should not show increased weight or blood glucose, aside from the normal effects of being on a high fat diet.
During week 1, there is already a decrease in blood glucose of almost 60 mg/dL from the vehicle group. This trend continued for the fasted glucose at week 2 (FIG. 7) as the Compound 1 group had 158.3 mg/dL glucose compared to 285.3 mg/dL glucose in the vehicle group.

[2] = Salt/free base screening by DSC and TGA (physical stability, polymorphs); format: physicochemical; settings: for polymorphism / phase changes on heating (DSC, TGA): thermal range evaluated by DSC/TGA (FIGS. 1, 2)
Description: Eight acceptable (Regulatory and pKa) salts were made of Compound 1, namely with hydrochloric acid, sulfuric acid, methanesulfonic acid, maleic acid, phosphoric acid, L-tartaric acid, citric acid, and malic acid. The resulting salts or the free base were then screened on: • 1) Processing, morphology, polymorphs; • 2) Crystal shape, single stable polymorph; • 3) Physical stability; • 4) Open dish accelerated stability (40° C./75% RH); and • 5) Biorelevant dissolution.
Since no other thermal transitions are observed in the DSC or TGA results, it appears Compound 1 exists only as a single phase (i.e. no polymorphs) over the thermal range evaluated.
Since the polymorphic transitions can have significant effects on dissolution and bioavailability of the drug substance, it is practical to select forms of the drug substance that minimize or eliminate the potential for phase transitions.

SMILES: Oc1ccc(C=Cc2cc(O)cc(O)c2)cc1 [resveratrol, reference compound]
blood glucose vs vehicle ([1]; 1000 mg/kg/day oral gavage): significant reductions in blood glucose
week 4 fed glucose test vs vehicle ([1]; 1000 mg/kg/day): significance was lost

polymorphism / phase changes on heating (DSC, TGA) [2]: no polymorphs
SMILES: Cc1nc(-c2cccnc2)sc1C(=O)Nc1ccccc1-c1cn2c(CN3CCOCC3)csc2n1 [Compound 1, 4-methyl-N-(2-(3-(morpholinomethyl)imidazo[2,1-b]thiazol-6-yl)phenyl)-2-(pyridin-3-yl)thiazole-5-carboxamide]
blood glucose vs vehicle ([1]; 100 mg/kg/day oral gavage): significant reductions in blood glucose
blood glucose vs vehicle group at weeks 2 and 3 ([1]; free base 100 mg/kg/day, weeks 2 (fed) and 3 (fasted), p value less than 0.01): significant decrease
decrease in blood glucose from the vehicle group (Ob/ob mouse; week 1 (FIG. 6)): ~60 mg/dL
fasted blood glucose (Ob/ob mouse; week 2 fasted (FIG. 7), vehicle group 285.3 mg/dL, p less than 0.0001): 158.3 mg/dL
blood glucose relative to vehicle groups (Ob/ob mouse; week 3 fed (FIG. 8)): significant (p<0.01) decrease

SMILES: CN(C)C(=N)N=C(N)N [metformin, reference compound]
blood glucose vs vehicle ([1]; 400 mg/kg/day oral gavage): significant reductions in blood glucose

hygroscopicity ([2]; TGA weight loss on heating attributed to water loss): hygroscopic
polymorphism / phase changes on heating (DSC, TGA) [2]: transitions between polymorphic forms
SMILES: Cc1nc(-c2cccnc2)sc1C(=O)Nc1ccccc1-c1cn2c(CN3CCOCC3)csc2n1 [HCl salt form of Compound 1]

SMILES: O=C(Nc1ccccc1-c1cn2c(CN3CCNCC3)csc2n1)c1cnc2ccccc2n1 [Compound 2, N-(2-(3-(piperazin-1-ylmethyl)imidazo[2,1-b]thiazol-6-yl)phenyl)quinoxaline-2-carboxamide]
blood glucose vs vehicle ([1]; 100 mg/kg/day oral gavage): significant reductions in blood glucose
week 4 fed glucose test vs vehicle ([1]; 100 mg/kg/day): significance was lost
